According to patent US20240228555A9, “ANTIMICROBIAL PEPTIDOMIMETICS” (Basilea Pharmaceutica International AG, Allschwil, priority 2020, published 2024):
Where a SMILES comes first, the peptide text is derived from it.

Experiments:
[1] = test system: human red blood cells (hRBC); format: cell-based; details: red cells of human, 1 h, 0.2 g/L
Summary of the method: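 Percent lysis was derived from supernatant absorbance at 540 nm relative to full lysis by 2.5% Triton X-100 (PBS defines 0%). Compounds, 200 μg/mL, were exposed for 1 h at 37° C to a 20% (v/v) suspension of washed human red cells.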

[2] = test system: Klebsiella pneumoniae SSI3010; details: SSI3010
Summary of the method: (§1)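 First, bacterial colonies are suspended in saline and adjusted to 0.5 McFarland. Next, the suspension is diluted into cation-adjusted Mueller-Hinton II broth (approx. 5×10^5 CFU/mL). Finally, it is added to two-fold serially diluted peptide, with polysorbate 80 at 0.002% final.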

[3] = test system: Escherichia coli ATCC 25922; details: ATCC 25922
Summary of the method: as §1

[4] = test system: Escherichia coli MCR-1 Af 45; details: Mueller-Hinton broth II, no visible growth after 18-20 hours at 35° C.
Summary of the method: as §1

SMILES | Hemolysis at 0.2 g/L [1] | Klebsiella pneumoniae SSI3010 MIC [2] | Escherichia coli ATCC 25922 MIC [3] | Escherichia coli MCR-1 Af 45 MIC [4]
CC[C@H](C)[C@@H]1NC(=O)[C@@H](CCN)NC(=O)[C@H]([C@@H](C)O)NC(=O)[C@H](CCN)NC(=O)[C@H](CCCNC(=N)N)NC(=O)[C@H](CC(N)=O)NC(=O)[C@@H](NC(=O)[C@H](Cc2ccc(O)cc2)NC(=O)[C@@H](NC(=O)[C@@H](NC(=O)[C@@H]2C[C@@H](N)CN2C(=O)[C@@H](N)C(C)C)[C@@H](C)CC)[C@@H](C)O)C(C)(C)SSC[C@@H](C(=O)N[C@@H](CCN)C(=O)N[C@H](C(=O)N[C@@H](Cc2ccc(O)cc2)C(=O)O)[C@@H](C)O)NC1=O [Example 117, Val-Pro((4R)NH2)-Ile-Thr-Tyr-Pen-Asn-Arg-Dab-Thr-^DDab-Ile-Cys-Dab-Thr-Tyr] (HELM PEPTIDE1{V.[N[C@@H]1C[C@@H](C(=O)[*:2])N([*:1])C1].I.T.Y.[Pen].N.R.[Dab].T.[NCC[C@@H](N[*:1])C(=O)[*:2]].I.C.[Dab].T.Y}$PEPTIDE1,PEPTIDE1,6:R3-13:R3$$$V2.0) | <1% | 0.25 µg/mL | 0.125 µg/mL | 0.125 µg/mL
CC[C@H](C)[C@H](NC(=O)[C@@H](NC(=O)[C@@H]1C[C@@H](O)CN1C(=O)[C@@H](N)C(C)C)[C@@H](C)CC)C(=O)N[C@@H](Cc1ccc(O)cc1)C(=O)N[C@@H]1C(=O)N[C@@H](CC(N)=O)C(=O)N[C@@H](CCCNC(=N)N)C(=O)N[C@@H](CCN)C(=O)N[C@@H](CO)C(=O)N[C@H](CCN)C(=O)N[C@@H]([C@@H](C)CC)C(=O)N[C@H](C(=O)N[C@@H](CCN)C(=O)N[C@@H](CCCNC(=N)N)C(=O)N[C@@H](Cc2ccc(O)cc2)C(=O)O)CSSC1(C)C [Example 118, Val-Hyp-Ile-Ile-Tyr-Pen-Asn-Arg-Dab-Ser-^DDab-Ile-Cys-Dab-Arg-Tyr] (HELM PEPTIDE1{V.[Hyp].I.I.Y.[Pen].N.R.[Dab].S.[NCC[C@@H](N[*:1])C(=O)[*:2]].I.C.[Dab].R.Y}$PEPTIDE1,PEPTIDE1,6:R3-13:R3$$$V2.0) | <1% | 0.25 µg/mL | 0.25 µg/mL | 0.25 µg/mL
CC[C@H](C)[C@H](NC(=O)[C@@H]1C[C@@H](N)CN1C(=O)[C@@H](N)C(C)C)C(=O)N[C@H](C(=O)N[C@@H](Cc1ccc(O)cc1)C(=O)N[C@@H]1C(=O)N[C@@H](CC(N)=O)C(=O)N[C@@H](CCCNC(=N)N)C(=O)N[C@@H](CCN)C(=O)N[C@@H]([C@@H](C)O)C(=O)N[C@H](CCN)C(=O)N[C@@H](CCCCN)C(=O)N[C@H](C(=O)N[C@@H](CO)C(=O)N[C@H](C(=O)N[C@@H](Cc2ccc(O)cc2)C(=O)O)[C@@H](C)O)CSSC1(C)C)[C@@H](C)O [Example 119, Val-Pro((4R)NH2)-Ile-Thr-Tyr-Pen-Asn-Arg-Dab-Thr-^DDab-Lys-Cys-Ser-Thr-Tyr] (HELM PEPTIDE1{V.[N[C@@H]1C[C@@H](C(=O)[*:2])N([*:1])C1].I.T.Y.[Pen].N.R.[Dab].T.[NCC[C@@H](N[*:1])C(=O)[*:2]].K.C.S.T.Y}$PEPTIDE1,PEPTIDE1,6:R3-13:R3$$$V2.0) | <1% | 0.25 µg/mL | 0.25 µg/mL | 0.25 µg/mL
CC[C@H](C)[C@H](NC(=O)[C@@H]1C[C@@H](N)CN1C(=O)[C@@H](N)C(C)C)C(=O)N[C@H](C(=O)N[C@@H](Cc1ccc(O)cc1)C(=O)N[C@@H]1C(=O)N[C@@H](CC(N)=O)C(=O)N[C@@H](CCCNC(=N)N)C(=O)N[C@@H](CCN)C(=O)N[C@@H]([C@@H](C)O)C(=O)N[C@H](CCN)C(=O)N[C@@H](CCCCN)C(=O)N[C@H](C(=O)N[C@@H](CCN)C(=O)N[C@H](C(=O)N[C@@H](Cc2ccc(O)cc2)C(=O)O)[C@@H](C)O)CSSC1(C)C)[C@@H](C)O [Example 120, Val-Pro((4R)NH2)-Ile-Thr-Tyr-Pen-Asn-Arg-Dab-Thr-^DDab-Lys-Cys-Dab-Thr-Tyr] (HELM PEPTIDE1{V.[N[C@@H]1C[C@@H](C(=O)[*:2])N([*:1])C1].I.T.Y.[Pen].N.R.[Dab].T.[NCC[C@@H](N[*:1])C(=O)[*:2]].K.C.[Dab].T.Y}$PEPTIDE1,PEPTIDE1,6:R3-13:R3$$$V2.0) | <1% | 0.5 µg/mL | 0.25 µg/mL | 0.125 µg/mL
CC[C@H](C)[C@H](NC(=O)[C@@H](NC(=O)[C@@H]1C[C@@H](O)CN1C(=O)[C@@H](N)C(C)C)[C@@H](C)CC)C(=O)N[C@@H](Cc1ccc(O)cc1)C(=O)N[C@@H]1C(=O)N[C@@H](CC(N)=O)C(=O)N[C@@H](CCCNC(=N)N)C(=O)N[C@@H](CCCN)C(=O)N[C@@H]([C@@H](C)O)C(=O)N[C@H](CCN)C(=O)N[C@@H]([C@@H](C)CC)C(=O)N[C@H](C(=O)N[C@@H](CCN)C(=O)N[C@@H](CCCNC(=N)N)C(=O)N[C@@H](Cc2ccc(O)cc2)C(=O)O)CSSC1(C)C [Example 121, Val-Hyp-Ile-Ile-Tyr-Pen-Asn-Arg-Orn-Thr-^DDab-Ile-Cys-Dab-Arg-Tyr] (HELM PEPTIDE1{V.[Hyp].I.I.Y.[Pen].N.R.[Orn].T.[NCC[C@@H](N[*:1])C(=O)[*:2]].I.C.[Dab].R.Y}$PEPTIDE1,PEPTIDE1,6:R3-13:R3$$$V2.0) | <1% | 0.5 µg/mL | 0.25 µg/mL | 0.25 µg/mL
CC[C@H](C)[C@H](NC(=O)[C@@H]1C[C@@H](O)CN1C(=O)[C@@H](N)C(C)C)C(=O)N[C@@H](CCCN)C(=O)N[C@@H](Cc1ccc(O)cc1)C(=O)N[C@@H]1C(=O)N[C@@H](CC(N)=O)C(=O)N[C@@H](CCCNC(=N)N)C(=O)N[C@@H](CCN)C(=O)N[C@@H]([C@@H](C)O)C(=O)N[C@H](CCN)C(=O)N[C@@H](CCCCN)C(=O)N[C@H](C(=O)N[C@@H](CCN)C(=O)N[C@H](C(=O)N[C@@H](Cc2ccc(O)cc2)C(=O)O)[C@@H](C)O)CSSC1(C)C [Example 122, Val-Hyp-Ile-Orn-Tyr-Pen-Asn-Arg-Dab-Thr-^DDab-Lys-Cys-Dab-Thr-Tyr] (HELM PEPTIDE1{V.[Hyp].I.[Orn].Y.[Pen].N.R.[Dab].T.[NCC[C@@H](N[*:1])C(=O)[*:2]].K.C.[Dab].T.Y}$PEPTIDE1,PEPTIDE1,6:R3-13:R3$$$V2.0) | <1% | 0.5 µg/mL | 0.25 µg/mL | 0.125 µg/mL
CC[C@H](C)[C@@H]1NC(=O)[C@@H](NC(=O)[C@H](Cc2ccc(O)cc2)NC(=O)[C@@H](NC(=O)[C@@H](NC(=O)[C@@H]2C[C@@H](O)CN2C(=O)[C@@H](N)C(C)C)[C@@H](C)CC)[C@@H](C)O)C(C)(C)SSC[C@@H](C(=O)N[C@@H](CCN)C(=O)N[C@@H](CCCNC(=N)N)C(=O)N[C@@H](Cc2ccc(O)cc2)C(=O)O)NC(=O)[C@H](CCCN)NC(=O)[C@@H](CCN)NC(=O)[C@H]([C@@H](C)O)NC(=O)[C@H](CCN)NC(=O)[C@H](CCCNC(=N)N)NC1=O [Example 123, Val-Hyp-Ile-Thr-Tyr-Pen-Ile-Arg-Dab-Thr-^DDab-Orn-Cys-Dab-Arg-Tyr] (HELM PEPTIDE1{V.[Hyp].I.T.Y.[Pen].I.R.[Dab].T.[NCC[C@@H](N[*:1])C(=O)[*:2]].[Orn].C.[Dab].R.Y}$PEPTIDE1,PEPTIDE1,6:R3-13:R3$$$V2.0) | <1% | 0.125 µg/mL | 0.0625 µg/mL | 0.125 µg/mL
CC[C@H](C)[C@H](NC(=O)[C@@H](NC(=O)[C@@H]1C[C@@H](O)CN1C(=O)[C@@H](N)C(C)C)[C@@H](C)CC)C(=O)N[C@@H](Cc1ccc(O)cc1)C(=O)N[C@@H]1C(=O)N[C@@H](CC(N)=O)C(=O)N[C@@H](CCCNC(=N)N)C(=O)N[C@@H](CCCNC(N)=O)C(=O)N[C@@H]([C@@H](C)O)C(=O)N[C@H](CCN)C(=O)N[C@@H](CCCCN)C(=O)N[C@H](C(=O)N[C@@H](CCN)C(=O)N[C@@H](CCCNC(=N)N)C(=O)N[C@@H](Cc2ccc(O)cc2)C(=O)O)CSSC1(C)C [Example 124, Val-Hyp-Ile-Ile-Tyr-Pen-Asn-Arg-Cit-Thr-^DDab-Lys-Cys-Dab-Arg-Tyr] (HELM PEPTIDE1{V.[Hyp].I.I.Y.[Pen].N.R.[Cit].T.[NCC[C@@H](N[*:1])C(=O)[*:2]].K.C.[Dab].R.Y}$PEPTIDE1,PEPTIDE1,6:R3-13:R3$$$V2.0) | <1% | 0.5 µg/mL | 0.25 µg/mL | 0.25 µg/mL
CC[C@H](C)[C@H](NC(=O)[C@@H]1C[C@@H](O)CN1C(=O)[C@@H](N)C(C)C)C(=O)N[C@@H](CCCCNC)C(=O)N[C@@H](Cc1ccc(O)cc1)C(=O)N[C@@H]1C(=O)N[C@@H](CC(N)=O)C(=O)N[C@@H](CCCNC(=N)N)C(=O)N[C@@H](CCN)C(=O)N[C@@H]([C@@H](C)O)C(=O)N[C@H](CCN)C(=O)N[C@@H](CCCCN)C(=O)N[C@H](C(=O)N[C@@H](CCN)C(=O)N[C@@H](CCCNC(=N)N)C(=O)N[C@@H](Cc2ccc(O)cc2)C(=O)O)CSSC1(C)C [Example 125, Val-Hyp-Ile-Lys(Me)-Tyr-Pen-Asn-Arg-Dab-Thr-^DDab-Lys-Cys-Dab-Arg-Tyr] (HELM PEPTIDE1{V.[Hyp].I.[CNCCCC[C@H](N[*:1])C(=O)[*:2]].Y.[Pen].N.R.[Dab].T.[NCC[C@@H](N[*:1])C(=O)[*:2]].K.C.[Dab].R.Y}$PEPTIDE1,PEPTIDE1,6:R3-13:R3$$$V2.0) | <1% | 0.5 µg/mL | 0.125 µg/mL | 0.03125 µg/mL
